# Assay results taken from publication PMC5118696, “Identification of inhibitors that dually target the new permeability pathway and dihydroorotate dehydrogenase in the blood stage of Plasmodium falciparum” (Scientific Reports, 2016).
# Tested on: Hyp1-NLuc Plasmodium falciparum-infected erythrocytes (new permeability pathway, NPP)
# Assay: microbe, parasite or virus in culture
# Conditions: Erythrocyte, 0.33 h, read-out: % of control remaining
row,Structure (SMILES),activity at 2 µM
1,COc1ccc(CN2CCCC(C(=O)c3ccc(C(F)(F)F)cc3)C2)c(O)c1 (stereo not shown) [MMV666060],114%
2,Cc1cc(N(C)C)nc(Nc2ccc(NC(=O)Nc3ccccc3)cc2)n1 [MMV020243],104%
3,COc1ccc(-c2c(C)nn3c(N)c(C#N)cnc23)cc1OC [MMV396797],89.6%
4,O=c1cc(NC2CCN(CCCc3ccccc3)CC2)c2cc(Cl)ccc2o1 [MMV665786],89.1%
5,Cc1ccc(C2CC(C(F)(F)F)n3nc(C(=O)N4CCN(C(c5ccccc5)c5ccccc5)CC4)cc3N2)cc1 (stereo not shown) [MMV000699],100%
6,O=C(Nc1ccc(CN2CCOCC2)cc1)c1ccc(-c2ccc(Br)cc2)o1 [MMV665901],105%
7,CCOC(=O)c1cn(CC)c2cc(N3CCCCC3)c(F)cc2c1=O [MMV665827],100%
8,CCOc1ccc(N2C(N)=NC(N)=NC2(C)C)cc1 [MMV667486],98%
9,CCC(O)c1ccc(Br)cc1NC(=O)c1cccc(Cl)c1 (stereo not shown) [MMV020654],105%
10,O=C(CSc1nccn2nc(-c3ccccc3)cc12)Nc1cc(C(F)(F)F)ccc1Cl [MMV396678],107%
11,CCCCCCOC(=O)C1=C(C)NC(=O)NC1c1ccccc1F (stereo not shown) [MMV007686],105%
12,CC(O)(c1ccc(Cl)cc1)C(CN1CCCCC1)c1ccccc1 (stereo not shown) [MMV000620],114%
13,COc1ccc(CN2CCN(Cc3ccccc3)CC2)c(O)c1 [MMV665944],99.6%
14,CCOc1cc2c(cc1OCC)C(c1cc(C)c(O)c(C)c1)NCC2 (stereo not shown) [MMV000483],102%
15,O=C(NC1CCN(Cc2ccccc2)CC1)c1cc2nc(-c3ccc(Cl)s3)cc(C(F)(F)F)n2n1 [MMV396635],101%
16,COc1ccc(-c2nonc2NC(=O)c2cccc(C)c2)cc1OC [MMV665890],113%
17,COCCN(C(=O)Cc1cccs1)C(C(=O)NCc1ccc(OC)cc1)c1ccc(C(C)C)cc1 (stereo not shown) [MMV666105],113%
18,CCN1CCN(Cc2ccc(NC(=O)c3cc4ccc5cccnc5c4[nH]3)cc2)CC1 [MMV020548],55.5%

row,Structure (SMILES),activity at 2 µM
1,CCOc1ccccc1CNC(=O)C1c2ccccc2C(=O)N(CC(C)C)C1c1cccs1 (stereo not shown) [MMV000653],119%
2,O=C(Nc1ccc(N2CCN(Cc3ccccc3)CC2)cc1)c1cccs1 [MMV019670],112%
3,CCCCCCC(O)(c1ccc(F)cc1)C(CN1CCOCC1)c1ccccc1 (stereo not shown) [MMV000621],117%
4,Oc1ccccc1CN1CCN(C(c2ccccc2)c2ccccc2)CC1 [MMV011795],113%
5,C=C(C)CCC(C)N1CCC(N2CCC(C(=O)NCCc3ccccc3)CC2)CC1 (stereo not shown) [MMV666110],116%
6,CSc1ccccc1C(=O)Nc1nc(-c2ccccn2)cs1 [MMV001246],106%
7,O=C(Nc1nc(-c2ccccn2)cs1)c1ccccc1Br [MMV665909],103%
8,CCOC(=O)c1cnc2ccc(OC)cc2c1Nc1ccc(N2CCN(C)CC2)cc1 [MMV000704],94.6%
9,O=C(NC1CCN(Cc2ccccc2)CC1)c1cc(C(=O)NC2CCN(Cc3ccccc3)CC2)cc(C(=O)NC2CCN(Cc3ccccc3)CC2)c1 [MMV019881],111%
10,Cc1ccc(S(=O)(=O)c2c(COC(=O)c3cccc(C)c3)c(-c3ccccc3)nn2C)cc1 [MMV665936],100%
11,Cc1cc(Nc2ccc(C)c(Cl)c2)n2nc(C(F)(F)F)nc2n1 [MMV665874],106%
12,CCCCOc1ccc(C(=O)Nc2cc(C)on2)cc1 [MMV007906],115%
13,Clc1ccc2c(N3CCCC3)ccnc2c1 [MMV007363],115%
14,CCCC(c1nnnn1C1CCCCC1)N1CCN(C(=O)c2ccco2)CC1 (stereo not shown) [MMV666093],113%
15,Oc1ccc(C(=C(Cl)Cl)c2ccc(O)cc2)cc1 [MMV665949],95.5%
16,O=C(Nc1ccccc1O)c1ccc(-c2ccc(Cl)cc2Cl)o1 [MMV665948],120%
17,Cc1ccc2c(C)nc(Nc3nc(C)cc(-c4ccccc4)n3)nc2c1 [MMV007041],98.8%

# Tested on: Hyp1-NLuc Plasmodium falciparum-infected erythrocytes (new permeability pathway, NPP)
# Assay: microbe, parasite or virus in culture
# Conditions: Erythrocyte, 0.33 h, read-out: Mean RLU at 28 min (As % of DMSO control)
row,Structure (SMILES),activity at 2 µM
1,COc1ccc(CN2CCCC(C(=O)c3ccc(C(F)(F)F)cc3)C2)c(O)c1 (stereo not shown) [MMV666060],103%
2,Cc1cc(N(C)C)nc(Nc2ccc(NC(=O)Nc3ccccc3)cc2)n1 [MMV020243],106%
3,COc1ccc(-c2c(C)nn3c(N)c(C#N)cnc23)cc1OC [MMV396797],104%
4,O=c1cc(NC2CCN(CCCc3ccccc3)CC2)c2cc(Cl)ccc2o1 [MMV665786],96.5%
5,Cc1ccc(C2CC(C(F)(F)F)n3nc(C(=O)N4CCN(C(c5ccccc5)c5ccccc5)CC4)cc3N2)cc1 (stereo not shown) [MMV000699],101%
6,O=C(Nc1ccc(CN2CCOCC2)cc1)c1ccc(-c2ccc(Br)cc2)o1 [MMV665901],99.8%
7,CCOC(=O)c1cn(CC)c2cc(N3CCCCC3)c(F)cc2c1=O [MMV665827],104%
8,CCOc1ccc(N2C(N)=NC(N)=NC2(C)C)cc1 [MMV667486],98.6%
9,CCC(O)c1ccc(Br)cc1NC(=O)c1cccc(Cl)c1 (stereo not shown) [MMV020654],113%
10,O=C(CSc1nccn2nc(-c3ccccc3)cc12)Nc1cc(C(F)(F)F)ccc1Cl [MMV396678],107%
11,CCCCCCOC(=O)C1=C(C)NC(=O)NC1c1ccccc1F (stereo not shown) [MMV007686],107%
12,CC(O)(c1ccc(Cl)cc1)C(CN1CCCCC1)c1ccccc1 (stereo not shown) [MMV000620],100%
13,COc1ccc(CN2CCN(Cc3ccccc3)CC2)c(O)c1 [MMV665944],96.8%
14,CCOc1cc2c(cc1OCC)C(c1cc(C)c(O)c(C)c1)NCC2 (stereo not shown) [MMV000483],103%
15,O=C(NC1CCN(Cc2ccccc2)CC1)c1cc2nc(-c3ccc(Cl)s3)cc(C(F)(F)F)n2n1 [MMV396635],101%
16,COc1ccc(-c2nonc2NC(=O)c2cccc(C)c2)cc1OC [MMV665890],104%
17,COCCN(C(=O)Cc1cccs1)C(C(=O)NCc1ccc(OC)cc1)c1ccc(C(C)C)cc1 (stereo not shown) [MMV666105],100%
18,CCN1CCN(Cc2ccc(NC(=O)c3cc4ccc5cccnc5c4[nH]3)cc2)CC1 [MMV020548],92.8%

row,Structure (SMILES),activity at 2 µM
1,CCOc1ccccc1CNC(=O)C1c2ccccc2C(=O)N(CC(C)C)C1c1cccs1 (stereo not shown) [MMV000653],105%
2,O=C(Nc1ccc(N2CCN(Cc3ccccc3)CC2)cc1)c1cccs1 [MMV019670],113%
3,CCCCCCC(O)(c1ccc(F)cc1)C(CN1CCOCC1)c1ccccc1 (stereo not shown) [MMV000621],106%
4,Oc1ccccc1CN1CCN(C(c2ccccc2)c2ccccc2)CC1 [MMV011795],115%
5,C=C(C)CCC(C)N1CCC(N2CCC(C(=O)NCCc3ccccc3)CC2)CC1 (stereo not shown) [MMV666110],108%
6,CSc1ccccc1C(=O)Nc1nc(-c2ccccn2)cs1 [MMV001246],112%
7,O=C(Nc1nc(-c2ccccn2)cs1)c1ccccc1Br [MMV665909],95.5%
8,CCOC(=O)c1cnc2ccc(OC)cc2c1Nc1ccc(N2CCN(C)CC2)cc1 [MMV000704],106%
9,O=C(NC1CCN(Cc2ccccc2)CC1)c1cc(C(=O)NC2CCN(Cc3ccccc3)CC2)cc(C(=O)NC2CCN(Cc3ccccc3)CC2)c1 [MMV019881],110%
10,Cc1ccc(S(=O)(=O)c2c(COC(=O)c3cccc(C)c3)c(-c3ccccc3)nn2C)cc1 [MMV665936],97%
11,Cc1cc(Nc2ccc(C)c(Cl)c2)n2nc(C(F)(F)F)nc2n1 [MMV665874],107%
12,CCCCOc1ccc(C(=O)Nc2cc(C)on2)cc1 [MMV007906],117%
13,Clc1ccc2c(N3CCCC3)ccnc2c1 [MMV007363],114%
14,CCCC(c1nnnn1C1CCCCC1)N1CCN(C(=O)c2ccco2)CC1 (stereo not shown) [MMV666093],104%
15,Oc1ccc(C(=C(Cl)Cl)c2ccc(O)cc2)cc1 [MMV665949],90%
16,O=C(Nc1ccccc1O)c1ccc(-c2ccc(Cl)cc2Cl)o1 [MMV665948],105%
17,Cc1ccc2c(C)nc(Nc3nc(C)cc(-c4ccccc4)n3)nc2c1 [MMV007041],104%
